Experimental data as given in article PMC11224556, “Next-generation of BBQ analogues that selectively target breast cancer” (Frontiers in Chemistry, 2024).
Like-named read-outs stand apart in the source and are kept apart here.

Experiments:
Type in all cases: cell-based, human
[1] = test system: broad panel of cancer cell lines and non-cancer breast cell line MCF10A; assay: MTT growth inhibition: GI50 ranges and selectivity across the cell line panel; conditions: for fold more potent than head group substituted analogues 3, 4, 6, 7, 8 and 9: across the cell lines examined (Table 1)
Excerpt: (§1) Each BBQ analogue, 2-14 was screened for their growth inhibition ability (GI50) in a broad panel of cancer cell lines and a non-cancer breast cell line (MCF10A), using the MTT growth inhibition assay (Table 1) ([Baker et al., 2021b]). The cancer panel comprised HT29 (colorectal), U87 (brain), SJ-G2 (brain), A2780 (ovary), Du145 (prostate), BE2-C (neuronal), MIA (pancreas), H460 (lung, ER+), A431 (vulva, ER+ (estrogen receptor positive)), and a wide selection of breast cancer cell lines with varying receptor status including MCF-7 (ER + luminal A), T47D (ER/PR+ (progesterone receptor positive)luminal A), ZR-75-1 (ER/PR + luminal A), BT-474 (ER/PR/HER2+ luminal B), SKBR-3 (HER2+), MDA-MB-468, BT20, and MDA-MB-231 (basal, triple negative (TN) for ER, PR, and HER2).
(§2) Stock solutions were prepared as follows and stored as 20 mM DMSO solutions at −20 °C. All cell lines were cultured in a humidified atmosphere 5% CO2 at 37 °C. The cancer cell lines were maintained in Dulbecco’s modified Eagle’s medium (DMEM) (Trace Biosciences, Australia) supplemented with 10% foetal bovine serum (FBS), 10 mM sodium bicarbonate, penicillin (100 IU/mL), streptomycin (100 μg/mL), and glutamine (4 mM). The non-cancer MCF10A cell line was cultured in DMEM:F12 (1:1) cell culture media, 5% heat inactivated horse serum, supplemented with penicillin (50 IU/mL), streptomycin (50 μg/mL), 20 mM Hepes, L-glutamine (2 mM), epidermal growth factor (20 ng/mL), hydrocortisone (500 ng/mL), cholera toxin (100 ng/mL), and insulin (10 μg/mL). The AhR reporter cell line HT29-Lucia™ (Invivogen, United States) was maintained in DMEM supplemented with 10% heat inactivated FBS, L-glutamine (2 mM), penicillin (100 IU/mL), streptomycin (100 μg/mL), 100 μg/mL Normocin™, and 100 μg/mL of the selective antibiotic Zeocin™. All cell lines were purchased from the American Type Culture Collection (ATCC), except for A2780 and A431 which were from the European Collection of Authenticated Cell Cultures (ECACC), and SJ-G2 cell line which was from Dr Mary Danks, St Jude Children’s Research hospital, Memphis, TN.
(§3) Cells in logarithmic growth were transferred to 96-well plates. Cytotoxicity was determined by plating cells in duplicate in 100 μL medium at a density of 2,500–4,000 cells/well in 96 well plates. On day 0, (24 h after plating) when the cells were in logarithmic growth 100 μL medium with or without the test agent was added to each well. After 72 h drug exposure growth inhibitory effects were evaluated using the MTT (3-[4,5-dimethylthiazol-2-yl]-2,5-diphenyltetrazolium bromide) assay with absorbance read at 540 nm. An eight-point dose response curve was produced, using MS Excel software. From these dose-response curves, the GI50 value was calculated, representing the drug concentration at which cell growth is 50% inhibited based on the difference between the optical density values on day 0 and those at the end of drug exposure ([Bradshaw et al., 2008]; [Zhang et al., 2009]). Each data point was conducted in duplicate and the mean ± S.E.M. calculated from four to five replicates (n = 4 or 5), which were performed on separate occasions and separate cell line passages. Where shown, significant test results were determined using T-test analysis at p < 0.01 and p < 0.05 with a two tail distribution.

[2] = test system: ZR-75-1 breast cancer cells; assay: MTT growth inhibition assay (72 h); conditions: ZR-75-1, Breast (ER/PR)
Excerpt: as §1, §2, §3

U87 (brain) cells = assay: MTT growth inhibition assay (72 h); conditions: U87, Brain (GBM)
Excerpt: as §1, §2, §3

Du145 (prostate) cells = assay: MTT growth inhibition assay (72 h)
Excerpt: as §1, §2, §3

MIA (pancreas) cells = assay: MTT growth inhibition assay (72 h)
Excerpt: as §1, §2, §3

[3] = test system: MCF-7 breast cancer cells; assay: MTT growth inhibition assay (72 h)
Excerpt: as §1, §2, §3

[4] = test system: SKBR3 breast cancer cells; assay: MTT growth inhibition assay (72 h)
Excerpt: as §1, §2, §3

[5] = test system: MDA-MB-468 breast cancer cells; assay: MTT growth inhibition assay (72 h); conditions: MDA-MB-468, Breast (TN)
Excerpt: as §1, §2, §3

[6] = test system: BT474 breast cancer cells; assay: MTT growth inhibition assay (72 h)
Excerpt: as §1, §2, §3

H460 (lung) cells = assay: MTT growth inhibition assay (72 h)
Excerpt: as §1, §2, §3

[7] = test system: MCF10A normal breast cells; assay: MTT growth inhibition assay (72 h)
Excerpt: as §1, §2, §3

BT20 breast cancer cells = assay: MTT growth inhibition assay (72 h)
Excerpt: as §1, §2, §3

A2780 (ovary) cells = assay: MTT growth inhibition assay (72 h)
Excerpt: as §1, §2, §3

HT29 (colorectal) cells = assay: MTT growth inhibition assay (72 h)
Excerpt: as §1, §2, §3

A431 (vulva/skin) cells = assay: MTT growth inhibition assay (72 h)
Excerpt: as §1, §2, §3

[8] = test system: MDA-MB-231 breast cancer cells; assay: MTT growth inhibition assay (72 h); conditions: MDA-MB-231, Breast (TN)
Excerpt: as §1, §2, §3

BE2-C (neuronal) cells = assay: MTT growth inhibition assay (72 h); conditions: Neuron
Excerpt: as §1, §2, §3

SJ-G2 (brain) cells = assay: MTT growth inhibition assay (72 h); conditions: SJ-G2, Brain (GBM)
Excerpt: as §1, §2, §3

T47D breast cancer cells = assay: MTT growth inhibition assay (72 h); conditions: Breast (ER/PR)
Excerpt: as §1, §2, §3

[9] = Homo sapiens, MCF7, MCF-7, Breast (ER)
[10] = Homo sapiens, SK-BR-3, SKBR3, Breast (HER2)
[11] = Homo sapiens, BT-474, BT474, Breast (ER/PR/HER2)
[12] = Homo sapiens, NCI-H460, H460, Lung (ER)
[13] = Homo sapiens, BT-20, BT20, Breast (TN)
[14] = Homo sapiens, HT-29, HT29, Colon
[15] = Homo sapiens, A-431, A431, Skin (ER)

Molecule	fold more potent than head group substituted analogues 3, 4, 6, 7, 8 and 9 [1]	GI50 [2]	GI50 (U87 (brain) cells)	GI50 (Du145 (prostate) cells)	GI50 ([2]; Homo sapiens)	GI50 (U87 (brain) cells; Homo sapiens)	GI50 (Du145 (prostate) cells; Homo sapiens, DU-145)	GI50 (MIA (pancreas) cells; Homo sapiens)	GI50 (T47D breast cancer cells; Homo sapiens)	GI50 [3, 9]	GI50 [4, 10]	GI50 [6, 11]	GI50 (H460 (lung) cells; [12])	GI50 ([7]; Homo sapiens, MCF-10A)	GI50 (BT20 breast cancer cells; [13])	GI50 (A2780 (ovary) cells; Homo sapiens)	GI50 (A431 (vulva/skin) cells; [15])	GI50 ([8]; Homo sapiens)	GI50 (BE2-C (neuronal) cells; Homo sapiens, BE(2)-C)	GI50 (SJ-G2 (brain) cells; Homo sapiens)	other results
3-Nitro-7H-benzo[de]benzo[4,5]imidazo[2,1-a]isoquinolin-7-one (11a) and 4-nitro-7H-benzo[de]benzo[4,5]imidazo[2,1-a]isoquinolin-7-one (11b) [Compound 11]	> 10 fold	0.0027 ± 0.0022 µM	0.55 ± 0.11 µM	0.32 ± 0.049 µM	–	–	–	–	–	–	–	–	–	–	–	–	–	–	–	–	GI50 (MIA (pancreas) cells): 1.4 ± 0.45 µM; GI50 ([3]; MCF-7, Breast (ER)): 0.0065 ± 0.0038 µM; GI50 ([4]; SKBR3, Breast (HER2)): 0.036 ± 0.006 µM; GI50 [5]: 0.0015 ± 0.0008 µM; GI50 ([6]; BT474, Breast (ER/PR/HER2)): 0.15 ± 0.053 µM; GI50 (H460 (lung) cells; H460, Lung (ER)): 0.00019 ± 0.0001 µM; GI50 [7]: 0.0031 ± 0.002 µM; GI50 (BT20 breast cancer cells; BT20, Breast (TN)): 0.0084 ± 0.004 µM; GI50 (A2780 (ovary) cells): 0.01 ± 0.003 µM; GI50 (HT29 (colorectal) cells; HT29, Colon): 0.3 ± 0.11 µM; GI50 (A431 (vulva/skin) cells; A431, Skin (ER)): 0.088 ± 0.031 µM; GI50 [8]: 2.1 ± 0.29 µM; GI50 (BE2-C (neuronal) cells): 0.74 ± 0.13 µM; GI50 (SJ-G2 (brain) cells): 0.61 ± 0.14 µM
7-Oxo-7H-benzo[de]benzo[4,5]imidazo[2,1-a]isoquinoline-10-carbonitrile (9a) and 7-oxo-7H-benzo[de]benzo[4,5]imidazo[2,1-a]isoquinoline-11-carbonitrile (9b) [Compound 9]	–	0.089 ± 0.04 µM	43 ± 4 µM	45 ± 1.7 µM	–	–	–	–	–	–	–	–	–	–	–	–	–	–	–	–	GI50 (MIA (pancreas) cells): 41 ± 9.5 µM; GI50 (T47D breast cancer cells): 4.2 ± 0.73 µM; GI50 ([3]; MCF-7, Breast (ER)): 25 ± 8.3 µM; GI50 ([4]; SKBR3, Breast (HER2)): 0.27 ± 0.018 µM; GI50 [5]: 0.074 ± 0.021 µM; GI50 ([6]; BT474, Breast (ER/PR/HER2)): > 50 µM; GI50 (H460 (lung) cells; H460, Lung (ER)): 41 ± 5.9 µM; GI50 [7]: 7.8 ± 1.62 µM; GI50 (BT20 breast cancer cells; BT20, Breast (TN)): 9.3 ± 8.4 µM; GI50 (A2780 (ovary) cells): 7 ± 0.64 µM; GI50 (HT29 (colorectal) cells; HT29, Colon): 44 ± 6.3 µM; GI50 (A431 (vulva/skin) cells; A431, Skin (ER)): 1.1 ± 0.1 µM; GI50 [8]: 38 ± 6 µM; GI50 (BE2-C (neuronal) cells): > 50 µM; GI50 (SJ-G2 (brain) cells): 26 ± 3.8 µM
Nc1ccccc1N1C(=O)c2cccc3cccc(c23)C1=O [Compound 2, 2-(2-aminophenyl)-1H-benzo[de]isoquinoline-1,3(2H)-dione]	–	–	–	–	–	–	–	–	–	–	–	–	–	–	–	–	–	–	–	–	increase in growth inhibition potency compared with MCF10A cells (fold, range over cell lines) ([1]; A431, T47D, ZR-75-1, SKBR3, MDA-MB-468 vs MCF10A, from GI50 values of ref Gilbert et al., 2020): 100 to 300 fold
O=c1c2cccc3cccc(c32)c2nc3ccc(Cl)cc3n12 [Compound 3, 10-Chloro-7H-benzo[de]benzo[4,5]imidazo[2,1-a]isoquinolin-7-one]	–	–	–	–	0.48 ± 0.24 µM	18 ± 3.8 µM	22 ± 3.1 µM	> 50 µM	11 ± 1.4 µM	7.9 ± 1.14 µM	0.3 ± 0.12 µM	> 50 µM	7.2 ± 1.16 µM	3.9 ± 0.21 µM	33 ± 4 µM	6.2 ± 0.46 µM	12 ± 1.8 µM	17 ± 6.1 µM	17 ± 4.3 µM	33 ± 8.3 µM	GI50 ([1]; Homo sapiens, read-out: GI50 (range over cell lines and both compounds 3 and 4), ZR-75-1, SKBR3 and MDA-MB-468): 0.26 to 0.88 µM; GI50 (HT29 (colorectal) cells; [14]): 21 ± 3.3 µM
O=c1c2cccc3cccc(c32)c2nc3ccccc3n12 [Compound 5, 7H-Benzo[de]benzo[4,5]imidazo[2,1-a]isoquinolin-7-one]	> 10 fold	–	–	–	0.026 ± 0.015 µM	7 ± 0.033 µM	4.1 ± 0.03 µM	5.2 ± 0.73 µM	0.2 ± 0.073 µM	2.1 ± 0.44 µM	0.032 ± 0.014 µM	1.5 ± 1.3 µM	0.61 ± 0.13 µM	3.2 ± 0.32 µM	0.41 ± 0.39 µM	2.2 ± 0.21 µM	0.05 ± 0.013 µM	5.5 ± 1.8 µM	5.1 ± 0.74 µM	4.6 ± 0.23 µM	fold greater response (selectivity) in MDA-MB-468 than in normal MCF10A breast cells ([1]; GI50 MCF10A / GI50 MDA-MB-468): 3,200 fold; growth inhibition compared with normal cells (fold, range over cell lines) ([1]; H460, A431, T47D, ZR-75-1, SKBR3, MDA-MB-468, BT20 vs MCF10A): 5 to 3200 fold; GI50 ([1]; Homo sapiens, T47D, ZR-75-1, SKBR3, MDA-MB-468 and BT20, read-out: GI50 (range over cell lines)): 0.001 to 0.41 µM; GI50 ([1]; Homo sapiens, all other cell populations (than H460, A431, T47D, ZR-75-1, SKBR3, MDA-MB-468, BT20), read-out: GI50 (range over cell lines)): 1.5 to 7 µM; GI50 ([1]; Homo sapiens, other cell lines HT29, U87, SJ-G2, A2780, DU145, BE2-C, MIA, MDA-MB-231, read-out: GI50 (range over cell lines)): 2.1 to 7 µM; GI50 ([1]; select breast cancer cell lines MCF-7, T47D, ZR-75-1, SKBR3, MDA-MB-468, BT20, BT474, read-out: GI50 values (range over cell lines)): 0.001 to 2.1 µM; GI50 (HT29 (colorectal) cells; [14]): 2.1 ± 0.3 µM
O=C(O)c1ccc2c3c1cccc3c(=O)n1c3ccccc3nc21 [Compound 14, reference compound]	–	–	–	–	24 ± 3.3 µM	25 ± 1.7 µM	21 ± 2 µM	20 ± 0.67 µM	16 ± 0.58 µM	> 50 µM	21 ± 0.67 µM	> 50 µM	20 ± 0.33 µM	15 ± 0.58 µM	50 µM	12 ± 0.91 µM	28 ± 5.1 µM	50 µM	6.9 ± 1.6 µM	13 ± 1.2 µM	GI50 ([5]; Homo sapiens): 6.13 ± 3.05 µM
